Assay results as given in patent US12516058B2, “Small-molecule compounds for controlling endosomal toll-like receptors and therapeutic agent for autoimmune diseases using same” (priority 2020, dated 2026).
Entries after “also recorded” stand apart in the source; their conditions may differ.

How the values were obtained:
TLR7 = target: T1, TLR7 (Mus musculus, UniProt P58681); experiment: TNF-α secretion ELISA after TLR7 agonist imiquimod (IMQ) in RAW 264.7 cells; type: cell-based; settings: SK21 to SK82 at 0.5 μM or 2 μM, Imiquimod 1 μg/ml
T1 construct: endogenous in cells; host or cells: RAW 264.7
T1 sequence (P58681 27-1050): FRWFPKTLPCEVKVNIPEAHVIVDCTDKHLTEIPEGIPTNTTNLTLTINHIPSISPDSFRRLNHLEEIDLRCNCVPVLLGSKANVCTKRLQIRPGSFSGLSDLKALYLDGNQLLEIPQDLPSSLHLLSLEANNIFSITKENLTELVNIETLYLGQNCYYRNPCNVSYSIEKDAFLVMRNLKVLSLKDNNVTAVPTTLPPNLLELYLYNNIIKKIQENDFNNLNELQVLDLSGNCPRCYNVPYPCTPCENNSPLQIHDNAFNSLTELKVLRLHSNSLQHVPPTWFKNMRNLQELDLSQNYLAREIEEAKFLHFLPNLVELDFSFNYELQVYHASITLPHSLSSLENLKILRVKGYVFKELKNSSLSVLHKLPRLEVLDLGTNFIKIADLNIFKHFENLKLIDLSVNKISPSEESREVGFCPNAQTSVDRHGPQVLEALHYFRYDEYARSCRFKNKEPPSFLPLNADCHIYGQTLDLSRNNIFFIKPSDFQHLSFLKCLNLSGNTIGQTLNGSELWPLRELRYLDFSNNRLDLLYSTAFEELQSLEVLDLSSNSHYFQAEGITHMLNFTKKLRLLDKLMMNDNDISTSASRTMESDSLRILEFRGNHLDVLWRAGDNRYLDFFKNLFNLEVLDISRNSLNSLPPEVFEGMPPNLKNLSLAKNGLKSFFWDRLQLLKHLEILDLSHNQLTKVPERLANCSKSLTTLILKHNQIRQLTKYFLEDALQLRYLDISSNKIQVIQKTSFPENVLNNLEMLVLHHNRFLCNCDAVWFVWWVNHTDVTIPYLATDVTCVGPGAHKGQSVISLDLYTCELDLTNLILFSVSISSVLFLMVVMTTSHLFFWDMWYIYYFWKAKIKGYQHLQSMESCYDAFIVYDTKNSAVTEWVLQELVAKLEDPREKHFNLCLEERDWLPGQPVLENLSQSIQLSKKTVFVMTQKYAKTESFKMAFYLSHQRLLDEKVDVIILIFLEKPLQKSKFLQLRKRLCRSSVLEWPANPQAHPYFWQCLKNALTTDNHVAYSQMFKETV
Procedure: (§1) In order to determine the inhibitory activities of the test-ligand, RAW 264.7 cells were pretreated with each candidate compound for 1 hour, then treated with Pam3CSK4 (synthetic triacyl lipopeptide; TLR1/2, Invitrogen), FSL-1 (synthetic diacyl lipoprotein, TLR2/6, 100 ng/ml), lipopolysaccharide (LPS, TLR4, Sigma Aldrich), imiquimod (IMQ, TLR7, Invitrogen), and ODN2395 (type C CpG repeat motif DNA oligo(5′-[…]-3), TLR9, Bioneer) ligand for 4 hours, and treated with poly I:C (I:C repeat motif double-stranded RNA, TLR3, Invitrogen) and TL8-506 (TLR8, Invitrogen) showing delayed reactivity for 24 hours. After activation of TLR, the supernatant was diluted in an appropriate ratio so as to measure within the standard dose range, transferred to a pre-coated 96-well assay plate, and then treated with mouse TNF-alpha secretion level in accordance with the manufacturer's instructions using a mouse-TNF-alpha ELISA-kit (Invitrogen).
(§2) In order to plot the concentration-dependent LC50 curves, treatment with the SK series ligands at different concentrations up to 200 μM (the highest concentration that could be treated within the level of 0.5% DMSO) was performed. Then, cell viability and toxicity response upon treatment with ligands were analyzed by MTT as described in Examples 1-3. Cell viability in each plot was normalized from negative control (100%; no treatment) to positive control (highest concentration of test-ligand), and LC50 was determined by non-linear regression (Graph Pad Prism 7.0). In order to plot the concentration-dependent IC50 curves, pre-treatment with the SK series ligands was performed at different concentrations up to 50 μM (twice the initial concentration). Cell responses mediated by TLR7 and TLR9 (levels of TNF-α secretion) were analyzed by ELISA as described in Examples 1-4. The cytokine level in each plot was normalized from negative control (non-treated) to positive control (treatment with ligand), and IC50 was determined by non-linear regression (Graph Pad Prism 7.0).
(§3) In order to select potential inhibitory molecules against TLR3/TLR7/TLR8/TLR9 activation, first, MTT (3-(4,5-dimethylthiazol-2-yl)-2,5-diphenyltetrazolium bromide) cell viability assay (FIG. 7) was performed upon treatment with a set of ligands from SK21 to SK82 at a concentration of 20 μM and the inhibitory activity thereof was evaluated by an ELISA assay to monitor the level of TNF-α secretion in RAW 264.7 cells. The experimental ligands from SK21 to SK82 were administered at 0.5 μM or 2 μM to the RAW 264.7 cells and stimulated with Imiquimod (TLR7, 1 μg/ml) and OND2395 (TLR9, 0.5 μM).

TLR9 = target: T2, TLR9 (Mus musculus, UniProt Q9EQU3); experiment: TNF-α secretion ELISA after TLR9 agonist ODN2395 in RAW 264.7 cells; type: cell-based; settings: SK21 to SK82 at 0.5 μM or 2 μM, ODN2395 0.5 μM
T2 construct: endogenous in cells; host or cells: RAW 264.7
T2 sequence (Q9EQU3 26-1032): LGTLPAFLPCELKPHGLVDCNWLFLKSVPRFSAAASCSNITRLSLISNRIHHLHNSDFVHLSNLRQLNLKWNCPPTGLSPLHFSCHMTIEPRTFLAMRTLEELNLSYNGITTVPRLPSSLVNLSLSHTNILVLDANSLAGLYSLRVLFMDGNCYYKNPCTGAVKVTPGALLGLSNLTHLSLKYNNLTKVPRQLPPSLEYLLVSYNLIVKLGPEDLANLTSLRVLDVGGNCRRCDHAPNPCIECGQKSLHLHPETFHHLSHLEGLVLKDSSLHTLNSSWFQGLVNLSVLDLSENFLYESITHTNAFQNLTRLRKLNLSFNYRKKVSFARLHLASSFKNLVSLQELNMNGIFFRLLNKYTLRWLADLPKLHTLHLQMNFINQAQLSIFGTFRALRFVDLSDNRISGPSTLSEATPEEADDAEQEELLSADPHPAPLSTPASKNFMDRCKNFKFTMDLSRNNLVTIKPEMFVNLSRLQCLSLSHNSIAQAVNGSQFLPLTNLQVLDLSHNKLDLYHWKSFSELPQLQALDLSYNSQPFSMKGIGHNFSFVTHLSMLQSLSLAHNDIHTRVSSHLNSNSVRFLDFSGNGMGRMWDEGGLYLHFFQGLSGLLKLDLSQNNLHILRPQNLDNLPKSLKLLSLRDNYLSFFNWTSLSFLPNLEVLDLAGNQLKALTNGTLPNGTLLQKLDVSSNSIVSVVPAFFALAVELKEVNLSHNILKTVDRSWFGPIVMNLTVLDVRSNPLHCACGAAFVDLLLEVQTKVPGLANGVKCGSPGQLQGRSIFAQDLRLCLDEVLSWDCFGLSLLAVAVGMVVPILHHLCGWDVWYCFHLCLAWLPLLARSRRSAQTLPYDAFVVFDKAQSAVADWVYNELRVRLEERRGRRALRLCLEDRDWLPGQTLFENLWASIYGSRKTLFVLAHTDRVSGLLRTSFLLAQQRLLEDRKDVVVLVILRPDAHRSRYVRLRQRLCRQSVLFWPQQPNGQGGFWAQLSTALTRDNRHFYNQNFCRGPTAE
Procedure: as §1, §2, §3

| inhibitory activity against TLR7 (level of TNF-α secretion) (TLR7; listed as SK 74) | inhibitory activity against TLR9 (level of TNF-α secretion) (TLR9; listed as SK 74) | SMILES | inhibitory activity against TLR7 (level of TNF-α secretion) (TLR7) | inhibitory activity against TLR9 (level of TNF-α secretion) (TLR9) |
| --- | --- | --- | --- | --- |
|  |  | CN(C)CCCn1c2ccc(C#N)cc2c2c(N)c3c(nc21)CCCC3 [SK62, 11-amino-6-(3-(dimethylamino)propyl)-2,3,4,6-tetrahydro-1H-indolo[2,3-b]quinolin-9-carbonitrile] | significant inhibitory activity; also recorded: significantly reduced | significant inhibitory activity; also recorded: significantly reduced |
|  |  | CN(C)CCCn1c2ccc(C(F)(F)F)cc2c2c(N)c3c(nc21)CCCC3 [SK63, 6-(3-(dimethylamino)propyl)-9-(trifluoromethyl)-2,3,4,6-tetrahydro-1H-indolo[2,3-b]quinolin-11-amine] | significant inhibitory activity; also recorded: significantly reduced | significant inhibitory activity; also recorded: significantly reduced |
|  |  | COc1ccc2c3c(N)c4c(nc3n(CCCN(C)C)c2c1)CCCC4 [SK65, 6-(3-(dimethylamino)propyl)-8-methoxy-2,3,4,6-tetrahydro-1H-indolo[2,3-b]quinolin-11-amine] | significant inhibitory activity; also recorded: significantly reduced | significant inhibitory activity; also recorded: significantly reduced |
|  |  | CN(C)CCCn1c2ccc(OCc3ccccc3)cc2c2c(N)c3c(nc21)CCCC3 [SK69, 9-(benzyloxy)-6-(3-(dimethylamino)propyl)-2,3,4,6-tetrahydro-1H-indolo[2,3-b]quinolin-11-amine] | significant inhibitory activity; also recorded: significantly reduced | significant inhibitory activity; also recorded: significantly reduced |
|  |  | CC(C)Oc1ccc2c(c1)c1c(N)c3c(nc1n2CCCN(C)C)CCCC3 [SK70, 6-(3-(dimethylamino)propyl)-9-isopropoxy-2,3,4,6-tetrahydro-1H-indolo[2,3-b]quinolin-11-amine] | significant inhibitory activity; also recorded: significantly reduced | significant inhibitory activity; also recorded: significantly reduced |
|  |  | CN(C)CCCn1c2ccc(O)cc2c2c(N)c3c(nc21)CCCC3 [SK71, 11-amino-6-(3-(dimethylamino)propyl)-2,3,4,6-tetrahydro-1H-indolo[2,3-b]quinolin-9-ol] | significant inhibitory activity; also recorded: significantly reduced | significant inhibitory activity; also recorded: significantly reduced |
|  |  | CN(C)CCCNc1c2c(nc3c1c1c4ccccc4ccc1n3CCCN(C)C)CCCC2 [SK72, N1-(7-(3-(dimethylamino)propyl)-9,10,11,12-tetrahydro-7H-benzo[4,5]indolo[2,3-b]quinolin-13-yl)-N3,N3-dimethylpropane-1,3-diamine] | significant inhibitory activity; also recorded: significantly reduced | significant inhibitory activity; also recorded: significantly reduced |
| significant inhibitory activity | significant inhibitory activity | CN(C)CCCn1c2ccc3ccccc3c2c2c(N)c3c(nc21)CCCC3 [SK74, 7-(3-(dimethylamino)propyl)-9,10,11,12-tetrahydro-7H-benzo[4,5]indolo[2,3-b]quinolin-13-amine] | significantly reduced | significantly reduced |
|  |  | CNCCCn1c(C)c(C)c2c(N)c3c(nc21)CCCCCC3 [SK75, 2,3-dimethyl-1-(3-(methylamino)propyl)-5,6,7,8,9,10-hexahydro-1H-cycloocta[b]pyrrolo[3,2-e]pyridin-4-amine] | significant inhibitory activity; also recorded: significantly reduced | significant inhibitory activity; also recorded: significantly reduced |
|  |  | Cc1ccc2c3c(N)c4c(nc3n(CCCN(C)C)c2c1)CCCC4 [SK81, 6-(3-(dimethylamino)propyl)-8-methyl-2,3,4,6-tetrahydro-1H-indolo[2,3-b]quinolin-11-amine] | significant inhibitory activity; also recorded: significantly reduced | significant inhibitory activity; also recorded: significantly reduced |
|  |  | CN(C)CCCn1c2cc(Cl)ccc2c2c(N)c3c(nc21)CCCC3 [SK82, 8-chloro-6-(3-(dimethylamino)propyl)-2,3,4,6-tetrahydro-1H-indolo[2,3-b]quinolin-11-amine] | significant inhibitory activity; also recorded: significantly reduced | significant inhibitory activity; also recorded: significantly reduced |
